By IC50 is commonly meant the point on the concentration scale where inhibition reaches its midpoint.

One compound from PMC8142146 (Bioorganic chemistry, 2020) can be followed below.

What all share (format): biochemical
One assay addresses PARP1 (Homo sapiens, UniProt P09874). In words: BPS PARP1 Chemiluminescent Activity Assay Kit.
A further assay concerns the target PARP2 (Homo sapiens, UniProt Q9UGN5). In words: PARP-isoform screening, Chemiluminescent Activity Assay Kit. Particulars: at 0.5 μM concentration.
The target of a further assay is T1, TNKS2 (PARP5B) (Homo sapiens, UniProt Q9H2K2).
T1 sequence (Q9H2K2 1-1166): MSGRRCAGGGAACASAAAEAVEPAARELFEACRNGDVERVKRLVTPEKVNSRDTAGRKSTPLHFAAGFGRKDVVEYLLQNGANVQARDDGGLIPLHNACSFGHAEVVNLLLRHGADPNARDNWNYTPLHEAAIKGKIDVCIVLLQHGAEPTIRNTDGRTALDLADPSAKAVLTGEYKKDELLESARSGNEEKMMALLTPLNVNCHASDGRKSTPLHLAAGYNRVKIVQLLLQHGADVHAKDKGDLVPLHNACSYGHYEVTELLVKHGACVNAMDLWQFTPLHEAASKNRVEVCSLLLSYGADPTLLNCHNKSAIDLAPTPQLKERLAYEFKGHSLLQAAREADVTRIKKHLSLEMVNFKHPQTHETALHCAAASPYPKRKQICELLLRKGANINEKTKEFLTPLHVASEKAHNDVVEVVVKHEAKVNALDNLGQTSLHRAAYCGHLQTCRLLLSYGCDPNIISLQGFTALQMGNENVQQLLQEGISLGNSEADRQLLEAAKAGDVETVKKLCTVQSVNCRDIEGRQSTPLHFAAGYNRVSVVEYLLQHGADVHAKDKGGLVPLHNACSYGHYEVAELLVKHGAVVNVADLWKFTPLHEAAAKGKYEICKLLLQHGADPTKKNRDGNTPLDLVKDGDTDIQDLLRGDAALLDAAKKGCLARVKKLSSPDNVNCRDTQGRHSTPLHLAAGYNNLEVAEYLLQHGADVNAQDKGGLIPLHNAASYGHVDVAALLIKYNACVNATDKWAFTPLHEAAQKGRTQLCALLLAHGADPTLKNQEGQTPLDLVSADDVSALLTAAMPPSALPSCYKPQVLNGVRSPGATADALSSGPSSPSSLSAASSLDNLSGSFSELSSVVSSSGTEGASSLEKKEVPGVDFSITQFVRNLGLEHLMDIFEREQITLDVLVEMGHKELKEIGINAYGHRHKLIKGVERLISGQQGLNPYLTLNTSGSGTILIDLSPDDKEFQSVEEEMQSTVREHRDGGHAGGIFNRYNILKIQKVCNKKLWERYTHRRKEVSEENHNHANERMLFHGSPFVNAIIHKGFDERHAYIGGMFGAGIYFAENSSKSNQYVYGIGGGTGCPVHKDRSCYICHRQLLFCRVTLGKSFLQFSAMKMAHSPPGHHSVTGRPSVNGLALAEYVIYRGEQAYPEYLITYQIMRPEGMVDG
Described as above. The following applies: Figure 5.

In the next assay the target is T2, PARP8 (Homo sapiens, UniProt Q8N3A8).
T2 sequence (Q8N3A8 1-854): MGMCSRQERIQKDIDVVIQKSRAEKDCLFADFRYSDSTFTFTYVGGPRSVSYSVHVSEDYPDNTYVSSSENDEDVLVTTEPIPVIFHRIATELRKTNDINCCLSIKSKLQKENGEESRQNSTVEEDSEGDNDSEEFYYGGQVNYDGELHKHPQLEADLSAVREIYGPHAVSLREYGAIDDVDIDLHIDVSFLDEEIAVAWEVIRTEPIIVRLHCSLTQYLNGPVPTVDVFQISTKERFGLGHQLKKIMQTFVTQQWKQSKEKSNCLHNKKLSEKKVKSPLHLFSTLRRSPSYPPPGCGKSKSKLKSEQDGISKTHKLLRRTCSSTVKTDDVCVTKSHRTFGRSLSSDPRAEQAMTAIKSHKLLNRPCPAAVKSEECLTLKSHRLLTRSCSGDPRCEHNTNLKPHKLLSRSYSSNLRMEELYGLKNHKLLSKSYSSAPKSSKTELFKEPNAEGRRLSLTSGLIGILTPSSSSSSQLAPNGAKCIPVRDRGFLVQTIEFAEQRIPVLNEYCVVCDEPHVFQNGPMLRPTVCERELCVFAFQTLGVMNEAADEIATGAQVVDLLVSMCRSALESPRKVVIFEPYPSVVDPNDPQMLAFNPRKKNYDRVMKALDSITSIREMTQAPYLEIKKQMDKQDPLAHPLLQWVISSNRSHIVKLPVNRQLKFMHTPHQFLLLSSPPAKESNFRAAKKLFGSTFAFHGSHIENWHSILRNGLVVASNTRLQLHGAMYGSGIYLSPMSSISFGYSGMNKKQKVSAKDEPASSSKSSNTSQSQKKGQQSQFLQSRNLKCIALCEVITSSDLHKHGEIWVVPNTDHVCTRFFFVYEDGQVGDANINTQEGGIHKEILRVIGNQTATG
The assay is described as above. The following applies: Figure 5.

The target of a further assay is PARP14 (Homo sapiens, UniProt Q460N5). The description is as above. Particulars: Figure 5.
Sequence of PARP14 (Q460N5 whole entry): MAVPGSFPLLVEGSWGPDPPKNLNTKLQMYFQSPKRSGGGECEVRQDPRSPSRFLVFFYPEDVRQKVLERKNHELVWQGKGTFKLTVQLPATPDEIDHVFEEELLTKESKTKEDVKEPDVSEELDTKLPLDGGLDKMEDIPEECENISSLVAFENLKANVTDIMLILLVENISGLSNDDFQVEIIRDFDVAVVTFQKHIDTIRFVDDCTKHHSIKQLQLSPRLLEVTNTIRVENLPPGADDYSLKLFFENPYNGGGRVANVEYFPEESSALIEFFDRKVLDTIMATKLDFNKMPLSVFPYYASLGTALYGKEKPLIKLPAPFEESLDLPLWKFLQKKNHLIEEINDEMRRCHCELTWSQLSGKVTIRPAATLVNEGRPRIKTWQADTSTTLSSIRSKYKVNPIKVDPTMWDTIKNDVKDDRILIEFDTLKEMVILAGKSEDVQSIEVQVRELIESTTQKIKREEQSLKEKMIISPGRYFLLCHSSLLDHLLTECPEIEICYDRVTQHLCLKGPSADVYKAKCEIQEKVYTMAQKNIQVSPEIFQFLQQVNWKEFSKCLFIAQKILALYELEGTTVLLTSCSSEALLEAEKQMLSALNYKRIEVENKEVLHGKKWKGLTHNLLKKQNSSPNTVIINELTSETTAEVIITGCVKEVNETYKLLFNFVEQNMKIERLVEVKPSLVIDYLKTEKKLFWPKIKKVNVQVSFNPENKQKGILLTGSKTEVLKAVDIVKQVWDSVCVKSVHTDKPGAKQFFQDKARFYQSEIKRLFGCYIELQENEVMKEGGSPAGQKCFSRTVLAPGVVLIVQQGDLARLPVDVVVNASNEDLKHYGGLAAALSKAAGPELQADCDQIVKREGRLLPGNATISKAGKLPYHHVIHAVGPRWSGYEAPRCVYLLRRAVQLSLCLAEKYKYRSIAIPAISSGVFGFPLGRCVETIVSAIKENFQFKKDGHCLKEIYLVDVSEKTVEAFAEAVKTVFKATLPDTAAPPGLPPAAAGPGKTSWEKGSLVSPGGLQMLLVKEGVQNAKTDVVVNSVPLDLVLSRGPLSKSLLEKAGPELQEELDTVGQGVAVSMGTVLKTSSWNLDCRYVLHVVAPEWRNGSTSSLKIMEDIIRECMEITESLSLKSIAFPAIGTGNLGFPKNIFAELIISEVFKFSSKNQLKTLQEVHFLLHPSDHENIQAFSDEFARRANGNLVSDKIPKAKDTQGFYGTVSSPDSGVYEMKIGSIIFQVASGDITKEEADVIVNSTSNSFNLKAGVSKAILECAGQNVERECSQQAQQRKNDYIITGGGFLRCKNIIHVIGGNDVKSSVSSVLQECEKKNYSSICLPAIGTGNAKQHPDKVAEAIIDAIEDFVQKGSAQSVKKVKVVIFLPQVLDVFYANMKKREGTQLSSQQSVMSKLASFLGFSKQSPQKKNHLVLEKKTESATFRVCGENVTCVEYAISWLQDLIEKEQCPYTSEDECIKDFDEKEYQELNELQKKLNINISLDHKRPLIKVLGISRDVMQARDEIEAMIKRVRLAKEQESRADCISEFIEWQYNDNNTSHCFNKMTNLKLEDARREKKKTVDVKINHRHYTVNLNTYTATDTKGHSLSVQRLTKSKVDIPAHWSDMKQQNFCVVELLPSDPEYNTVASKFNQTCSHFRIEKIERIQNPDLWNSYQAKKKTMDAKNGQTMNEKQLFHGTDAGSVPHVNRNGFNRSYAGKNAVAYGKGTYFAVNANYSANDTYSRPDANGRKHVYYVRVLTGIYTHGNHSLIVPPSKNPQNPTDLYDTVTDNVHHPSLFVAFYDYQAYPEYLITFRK

Sequence of PARP1 (P09874 whole entry, canonical isoform): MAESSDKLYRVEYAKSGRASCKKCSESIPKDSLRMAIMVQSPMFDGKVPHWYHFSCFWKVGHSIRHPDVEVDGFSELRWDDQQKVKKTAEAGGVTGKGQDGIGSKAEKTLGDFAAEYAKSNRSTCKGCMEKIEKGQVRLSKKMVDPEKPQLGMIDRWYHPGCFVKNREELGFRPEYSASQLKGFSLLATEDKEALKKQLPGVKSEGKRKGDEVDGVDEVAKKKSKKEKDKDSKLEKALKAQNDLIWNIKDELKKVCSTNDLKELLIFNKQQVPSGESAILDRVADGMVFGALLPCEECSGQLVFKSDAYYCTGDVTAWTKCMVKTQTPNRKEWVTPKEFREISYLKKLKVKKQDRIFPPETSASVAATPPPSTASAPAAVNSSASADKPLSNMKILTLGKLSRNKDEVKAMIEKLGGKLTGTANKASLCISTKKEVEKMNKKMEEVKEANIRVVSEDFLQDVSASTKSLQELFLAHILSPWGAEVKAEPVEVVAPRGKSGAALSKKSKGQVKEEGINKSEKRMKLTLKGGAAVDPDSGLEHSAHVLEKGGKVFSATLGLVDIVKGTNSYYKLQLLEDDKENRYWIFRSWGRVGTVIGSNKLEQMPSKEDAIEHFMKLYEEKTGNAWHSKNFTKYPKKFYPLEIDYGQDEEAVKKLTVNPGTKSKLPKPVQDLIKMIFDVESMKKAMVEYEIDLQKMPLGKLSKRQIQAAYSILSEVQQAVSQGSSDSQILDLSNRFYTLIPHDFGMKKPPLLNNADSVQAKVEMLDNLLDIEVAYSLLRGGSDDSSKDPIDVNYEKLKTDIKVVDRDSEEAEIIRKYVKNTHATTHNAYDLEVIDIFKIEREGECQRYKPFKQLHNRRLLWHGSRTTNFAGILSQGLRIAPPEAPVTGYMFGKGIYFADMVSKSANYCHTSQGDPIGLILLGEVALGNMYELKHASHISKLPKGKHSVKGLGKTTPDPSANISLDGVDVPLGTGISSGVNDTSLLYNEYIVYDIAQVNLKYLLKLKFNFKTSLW
Sequence of PARP2 (Q9UGN5 whole entry, canonical isoform): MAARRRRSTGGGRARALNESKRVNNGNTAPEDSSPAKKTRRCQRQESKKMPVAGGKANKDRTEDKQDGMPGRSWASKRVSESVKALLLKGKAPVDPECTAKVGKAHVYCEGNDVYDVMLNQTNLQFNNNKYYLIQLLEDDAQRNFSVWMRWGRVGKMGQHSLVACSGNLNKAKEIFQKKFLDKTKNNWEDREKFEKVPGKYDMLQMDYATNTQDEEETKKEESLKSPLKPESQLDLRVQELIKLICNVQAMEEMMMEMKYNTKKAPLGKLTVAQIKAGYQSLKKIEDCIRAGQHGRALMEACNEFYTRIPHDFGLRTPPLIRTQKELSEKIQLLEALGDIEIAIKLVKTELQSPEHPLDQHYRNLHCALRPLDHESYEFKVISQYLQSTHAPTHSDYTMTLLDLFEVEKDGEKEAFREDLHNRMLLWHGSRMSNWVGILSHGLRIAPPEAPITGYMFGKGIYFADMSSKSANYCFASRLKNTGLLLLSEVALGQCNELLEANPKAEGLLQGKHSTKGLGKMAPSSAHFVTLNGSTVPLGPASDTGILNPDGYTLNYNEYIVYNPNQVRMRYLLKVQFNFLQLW

Compound `NC(=O)c1cccc2c1O/C(=C\c1ccc(O)cc1)C(=O)N2` [Compound 49, (Z)-2-(4-Hydroxybenzylidene)-3-oxo-3,4-dihydro-2H-benzo[b][1,4]oxazine-8-carboxamide] showed a half-inhibitory concentration (IC50) against PARP1 of 0.082 ± 0.045 µM. For the same compound, the PARP2 inhibition result on PARP2 is listed as “complete inhibition”. For the same compound, the TNKS2 inhibition result at TNKS2 (PARP5B) is recorded as “substantially inhibited”. Also, the PARP8 inhibition entry at PARP8 is given as “did not interfere”. Moreover, on PARP14, the PARP14 inhibition result is recorded as “did not interfere”.
